Measured values from ChEMBL document CHEMBL4387717, “Structure guided drug design to develop kallikrein 5 inhibitors to treat Netherton syndrome” (Bioorg Med Chem Lett, 2019).
In brackets after ≈: the same amount, converted by molar mass.

What was measured:
[1] = Solubility of the compound in pH 6 Britton-Robinson buffer at 24 hrs; type: physicochemical; conditions: Britton-Robinson buffer, pH 6
[2] = Solubility of the compound in water at 24 hrs; type: physicochemical
[3] = Absorption property in methanol assessed as maximum absorption wavelength by UV-spectra analysis; type: physicochemical
[4] = Absorption property in methanol assessed as molar extinction co-efficient by UV-spectra analysis; type: physicochemical
[5] = molecular target: Urokinase-type plasminogen activator (Homo sapiens, UniProt P00749); assay: Inhibition of recombinant C-terminal 10His-tagged human urokinase (Met1 to Leu431 residues) expressed in mouse NS0 cells using Z-GGR-AMC as substrate after 40 mins by fluorescence intensity assay
Keratinocyte [6] = assay: Induction of irritation in human epidermal keratinocytes assessed as effect on cell viability over 24 hrs; type: cell-based
[7] = Solubility of the compound in pH 4 Britton-Robinson buffer at 24 hrs; type: physicochemical; conditions: Britton-Robinson buffer, pH 4
Prothrombin = Prothrombin (Homo sapiens, UniProt P00734); assay: Inhibition of recombinant C-terminal 10His-tagged human thrombin (Met1 to Glu622 residues) expressed in mouse NS0 cells using BOC-VPR-AMC as substrate after 40 mins by fluorescence intensity assay
[8] = molecular target: T1, Suppressor of tumorigenicity 14 protein (Homo sapiens, UniProt Q9Y5Y6); assay: Inhibition of recombinant human N-terminal met-His6-tagged matriptase catalytic domain (Gly596 to Val855 residues) expressed in Escherichia coli using Boc-QAR-AMC as substrate after 40 mins by fluorescence intensity assay
T1 sequence (Q9Y5Y6 whole entry): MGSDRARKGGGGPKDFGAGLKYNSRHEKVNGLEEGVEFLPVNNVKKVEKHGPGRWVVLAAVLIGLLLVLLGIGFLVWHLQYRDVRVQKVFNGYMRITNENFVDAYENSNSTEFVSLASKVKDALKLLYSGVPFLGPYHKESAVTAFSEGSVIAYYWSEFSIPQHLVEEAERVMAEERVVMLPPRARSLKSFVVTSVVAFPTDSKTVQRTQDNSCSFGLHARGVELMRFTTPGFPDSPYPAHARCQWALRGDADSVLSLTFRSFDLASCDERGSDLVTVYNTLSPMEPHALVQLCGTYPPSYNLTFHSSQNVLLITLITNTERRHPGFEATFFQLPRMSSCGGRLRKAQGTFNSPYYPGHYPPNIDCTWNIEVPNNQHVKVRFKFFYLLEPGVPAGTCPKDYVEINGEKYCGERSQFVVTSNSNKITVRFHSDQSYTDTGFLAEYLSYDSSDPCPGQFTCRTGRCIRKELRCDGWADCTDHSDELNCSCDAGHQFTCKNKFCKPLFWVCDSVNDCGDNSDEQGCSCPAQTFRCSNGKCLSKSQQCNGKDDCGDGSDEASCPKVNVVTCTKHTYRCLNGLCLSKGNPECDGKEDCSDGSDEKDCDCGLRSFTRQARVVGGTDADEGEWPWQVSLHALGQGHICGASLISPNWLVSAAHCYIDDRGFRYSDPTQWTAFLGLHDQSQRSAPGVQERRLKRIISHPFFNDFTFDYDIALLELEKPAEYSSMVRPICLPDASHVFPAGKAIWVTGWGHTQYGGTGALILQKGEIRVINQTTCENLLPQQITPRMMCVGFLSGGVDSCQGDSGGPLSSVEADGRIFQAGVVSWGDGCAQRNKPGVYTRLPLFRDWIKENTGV

Kallikrein-5 = molecular target: T2, Kallikrein-5 (Homo sapiens, UniProt Q9Y337); assay: Inhibition of recombinant 6His-Q-FLAG tagged human KLK5 expressed in baculovirus infected Sf9 insect cells using (Tos-Gly-Pro-Arg)2[R110].2TFA as substrate measured at 30 secs interval for 5 mins by fluorescence intensity assay; conditions: read-out: pIC50 (converted)
T2 sequence (Q9Y337 whole entry): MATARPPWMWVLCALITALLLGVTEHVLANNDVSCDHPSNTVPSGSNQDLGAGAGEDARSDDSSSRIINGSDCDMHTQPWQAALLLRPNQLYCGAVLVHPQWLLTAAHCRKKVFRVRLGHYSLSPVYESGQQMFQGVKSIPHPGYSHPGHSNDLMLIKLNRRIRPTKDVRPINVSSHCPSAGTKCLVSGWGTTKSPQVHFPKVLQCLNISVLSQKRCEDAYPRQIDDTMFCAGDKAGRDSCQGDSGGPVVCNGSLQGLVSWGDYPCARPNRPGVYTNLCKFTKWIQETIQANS

Homo sapiens [9] = organism: Homo sapiens; assay: Selectivity index, ratio of compound effect for inhibition of recombinant C-terminal 10-His tagged human KLK7 (Glu23 to His252 residues) expressed in mouse NS0 cells to compound effect for inhibition of recombinant 6His-Q-FLAG tagged human KLK5 expressed in baculovirus infected insect Sf9 cells
Homo sapiens [10] = organism: Homo sapiens; assay: Selectivity index, ratio of compound effect for inhibition of recombinant C-terminal 10-His tagged human KLK8 (Gln29 to Gly260 residues) expressed in mouse NS0 cells to compound effect for inhibition of recombinant 6His-Q-FLAG tagged human KLK5 expressed in baculovirus infected insect Sf9 cells
Homo sapiens [11] = organism: Homo sapiens; assay: Selectivity index, ratio of compound effect for inhibition of recombinant C-terminal 10-His tagged human thrombin (Met1 to Glu622 residues) expressed in mouse NS0 cells to compound effect for inhibition of recombinant 6His-Q-FLAG tagged human KLK5 expressed in baculovirus infected insect Sf9 cells
[12] = Half life in pH 8 buffer at 0.05 mg/ml under H2O2-induced oxidative condition over 24 hrs; type: physicochemical; conditions: buffer with H2O2, pH 8
Kallikrein-7 = Kallikrein-7 (Homo sapiens, UniProt P49862); assay: Inhibition of recombinant C-terminal 10His-tagged human KLK7 (Glu23 to His252 residues) expressed in mouse NS0 cells using 5-FAM-E-A-L-Y-L-V-S-G-C as substrate after 40 mins by fluorescence intensity assay
Keratinocyte [13] = assay: Induction of irritation in human epidermal keratinocytes assessed as effect on IL1alpha levels over 24 hrs; type: cell-based
[14] = Half life in pH 6 buffer at 0.05 mg/ml under H2O2-induced oxidative condition over 24 hrs; type: physicochemical; conditions: buffer with H2O2, pH 6

Chain of Kallikrein-7 (P49862 whole entry): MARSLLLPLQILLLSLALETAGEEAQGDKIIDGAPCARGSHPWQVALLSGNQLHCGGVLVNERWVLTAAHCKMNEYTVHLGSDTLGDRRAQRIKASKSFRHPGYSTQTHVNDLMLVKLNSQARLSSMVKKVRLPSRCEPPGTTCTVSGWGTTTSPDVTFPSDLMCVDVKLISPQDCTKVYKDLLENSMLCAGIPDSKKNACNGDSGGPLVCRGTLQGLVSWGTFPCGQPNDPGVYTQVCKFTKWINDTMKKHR

For `N=C(N)c1ccc(NCc2nc(-c3ccccc3)c[nH]2)cc1OCc1cccnc1`, the solubility at 24 h [1] was 290 µg/mL (≈ 728 µM), the solubility at 24 h [2] was 1000 µg/mL (≈ 2510 µM) and the Activity [3] was > 290 nm. The Activity [4] was > 1000 a.u.L/mol.cm, the IC50 [5] was > 100 µM and the Activity (Keratinocyte [6]) was “Non-Toxic”. It also gave a solubility at 24 h [7] of 1000 µg/mL (≈ 2510 µM), an IC50 (Prothrombin) of 63.1 µM and an IC50 [8] of 25.1 µM. For the same compound, the IC50 (Kallikrein-5) was 0.0794 µM, the Selectivity Index (Homo sapiens [9]) was > 100 and the Selectivity Index (Homo sapiens [10]) was 10. The Selectivity Index (Homo sapiens [11]) was > 100, the half-life at 0.05 mg/ml [12] was 10.1 h and the IC50 (Kallikrein-7) was > 100 µM. The Activity (Keratinocyte [13]) was “Non-Toxic” and the half-life at 0.05 mg/ml [14] was 27.8 h.
